# PubChem BioAssay AID2060622 (Molecular Pharmacology Branch, DTP, NCI, 2025)
# “And” between values parts separate entries of the source, which are not always exact repeats. Equal entries are not always repeated.
# Tested on: 242566-281-R-J2-PDC complex spheroid viability
# Test: Anticancer human tumor 242566-281-R-J2-PDC patient-derived pancreatic carcinoma cell line growth inhibition [CLK]
# Details: for viability, T/C: stronger effect = lower value
# Excerpt: A high-throughput screen of multi-cell type tumor spheroids was designed to identify active combinations of […] and targeted small molecules. Complex spheroids include a stromal component modeled by human endothelial cells (HUVEC) and fibroblasts modeled by human mesenchymal stem cells (MSCs). The concentration ranges selected for each drug and investigational agent were based upon clinically achievable concentrations if the clinical Cmax of the agent was known.
# Compounds. The drugs and investigational agents: cirtuvivint (SM08502; NSC835563), CC-671 (NSC850746), vemurafenib (NSC761431), tapotoclax (NSC804041), sotorasib (NSC818433), adagrasib (NSC831453), MRTX-1133 (NSC836407), BAY2416964 (NSC825713), copanlisib (NSC816437), inavolisib (NSC800729), abemaciclib (NSC768073), osimertinib (NSC779217), entinostat (NSC756642), eltanexor (KPT-8602, NSC794443), venetoclax (NSC766270), ceralasertib (NSC777638), bortezomib (NSC756655), olaparib (NSC753686), talazoparib (NSC767125), alisertib (NSC759677), peposertib (NSC802822), gemcitabine (NSC613327), 5-fluorouracil (NSC19893), SN-38 (NSC673596), oxaliplatin (NSC266046), paclitaxel (NSC125973), and doxorubicin (NSC123127), were obtained from the National Cancer Institute (NCI) Developmental Therapeutics Program Chemical Repository. The FDA-approved anticancer drug set is available from the Developmental Therapeutics Program at https://dtp.cancer.gov/organization/dscb/obtaining/available plates.htm. […] The stock solutions were prepared in dimethyl sulfoxide (DMSO, Sigma-Aldrich, St. Louis, MO, cat. D2650), except for the platinum complexes which were prepared in saline (Quality Biological, Gaithersburg, MD, cat. 114-055-101), at 800-fold the tested concentration and stored at -70 degrees C prior to their use. All drugs and investigational agents were tested over a range starting from a high concentration at or near the clinical Cmax and decreasing in half-log increments. If the clinical Cmax for an agent had not been determined, the highest concentration tested was 10 microM.
# Cell Culture. All cells were maintained in an incubator at 37 degrees C and 5% CO2 with 95% humidity. The PDC lines were cultured according to standard operating procedures established by the NCI PDMR. Briefly, all PDCs were thawed and cultured in Matrigel-coated flasks prepared with a working solution of 1X Ham's F-12 nutrient mix, without supplementation (Invitrogen, Waltham, MA, cat. 11765054), 100 U/mL penicillin-streptomycin (Invitrogen, cat. 15140122), and 2.5% Matrigel (Corning Inc., Corning, NY, cat. 354248) for the first three passages. The 947758-054-R-J2-PDC line was cultured in 6B/Colon 1A media, which includes advanced DMEM/F-12 (Thermo Fisher Scientific, cat. 12634028), 10 mM HEPES (Thermo Fisher Scientific, cat. 15630080), 1X GlutaMAX supplement (Thermo Fisher Scientific, cat. 35050061), 0.1 mg/mL primocin (InvivoGen, cat. ant-pm-2), 10% defined fetal bovine serum, heat inactivated (HyClone Laboratories Inc., cat. SH30070.03HI), 1.25 mM N-Acetyl-L-cysteine (Sigma-Aldrich, cat. A9165), 10 mM nicotinamide (Sigma-Aldrich, cat. N0636), 1X B-27 supplement (Thermo Fisher Scientific, cat. 17504044), 1X N-2 supplement (Thermo Fisher Scientific, cat. 17502048), and 10 microM Y-27632 dihydrochloride (Tocris Bioscience, cat. 1254). The 876862-298-R-J1-PDC was cultured in 6E media, which includes all 6B/Colon 1A media components plus 50% L-WRN conditioned media (ATCC, cat. CRL-3276), 50 ng/mL recombinant human EGF recombinant protein (hEGF; Thermo Fisher Scientific, cat. PHG0311), 10 ng/mL recombinant human fibroblast growth factor 10 (hGFG-10; PeproTech, cat. 100-26), 1 ng/mL recombinant human fibroblast growth factor 2 (hFGF-2; PeproTech, cat. 100-18B), and 1 µM prostaglandin E2 (PGE2; Tocris, cat. 2296). The 227483-062-R1-J1-PDC line was cultured in Panc media, containing all 6E components except hFGF-2, with the addition of 500 nM SB-431542 (Selleckchem, cat. S1067) and 10 nM gastrin (Tocris, cat. 3006). […]
# 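Also: spheroids exposed to compounds for 7 days before readout.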
# 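For viability, T/C in this document: 100% = DMSO vehicle control wells.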
SMILES,"viability, T/C (compound 0.0316 µM)","viability, T/C (compound 0.1 µM)","viability, T/C (compound 0.316 µM)","viability, T/C (compound 1 µM)","viability, T/C (compound 3.16 µM)","viability, T/C (compound 10 µM)",IC50 (curve of compound),also measured
C#Cc1c(F)ccc2cc(O)cc(-c3ncc4c(N5CC6CCC(C5)N6)nc(OCC56CCCN5CC(F)C6)nc4c3F)c12 (configuration not stated),104% and 67.3%,90.1% and 49.6%,76.2% and 43.3%,58.3% and 26.4%,48.6% and 26%,40% and 21.3%,,
C=C(F)C(=O)N1CCN(c2nc(OCC3CCCN3C)nc3c2CCN(c2cccc4cccc(Cl)c24)C3)CC1CC#N (configuration not stated),88.1% and 109%,81.2% and 96.7%,70.4% and 103%,116% and 111%,103% and 83%,0.27% and 0.16%,5350 nM and 5000 nM,
C=CC(=O)N1CCN(c2nc(=O)n(-c3c(C)ccnc3C(C)C)c3nc(-c4c(O)cccc4F)c(F)cc23)C(C)C1 (configuration not stated),95.5% and 104%,80.4% and 92.4%,78.5% and 103%,104% and 90.6%,102% and 88.7%,70.8% and 77.6%,> 10000 nM,
C=CC(=O)Nc1cc(Nc2nccc(-c3cn(C)c4ccccc34)n2)c(OC)cc1N(C)CCN(C)C,,,,,,,> 300 nM,"viability, T/C (compound 0.000949 µM): 98.9% and 87.5%; viability, T/C (compound 0.003 µM): 97.1% and 95.4%; viability, T/C (compound 0.00949 µM): 94.8% and 88.7%; viability, T/C (compound 0.03 µM): 95.2% and 96.2%; viability, T/C (compound 0.0949 µM): 95.1% and 107%; viability, T/C (compound 0.3 µM): 69.7% and 97.1%"
CC(=O)O[C@H]1C(=O)[C@@]2(C)[C@H]([C@H](OC(=O)c3ccccc3)[C@]3(O)C[C@H](OC(=O)[C@H](O)[C@@H](NC(=O)c4ccccc4)c4ccccc4)C(C)=C1C3(C)C)[C@]1(OC(C)=O)CO[C@@H]1C[C@@H]2O,34.2% and 57.7%,33.9% and 45%,28.5% and 35.4%,23.9% and 38.6%,32.5% and 40%,34.1% and 56.3%,< 31.6 nM and 60.1 nM,
CC(C)CC(NC(=O)C(Cc1ccccc1)NC(=O)c1cnccn1)B(O)O (configuration not stated),,,,,,,2.48 nM and 4.67 nM,"viability, T/C (compound 0.000949 µM): 99.7% and 88.2%; viability, T/C (compound 0.003 µM): 40% and 80.3%; viability, T/C (compound 0.00949 µM): 1.73% and 1.58%; viability, T/C (compound 0.03 µM): 0.47% and 0.59%; viability, T/C (compound 0.0949 µM): 0.33% and 0.52%; viability, T/C (compound 0.3 µM): 0.18% and 0.32%"
CC(CO)NC(=O)c1cc(-c2ccc(Cl)cc2)nn(-c2cnn(C)c2)c1=O (configuration not stated),94.4% and 97.3%,96.2% and 94.5%,85.6% and 102%,116% and 98.1%,131% and 97.1%,75.8% and 82.5%,> 10000 nM,
CC(Nc1ccc2c(c1)OCCn1cc(N3C(=O)OCC3C(F)F)nc1-2)C(N)=O (configuration not stated),98.6% and 96.1%,91.6% and 97.8%,71.3% and 89.9%,51.9% and 68.2%,36.4% and 46.8%,21.7% and 32.6%,1180 nM and 2540 nM,
CC1(C)CCC(CN2CCN(c3ccc(C(=O)NS(=O)(=O)c4ccc(NCC5CCOCC5)c([N+](=O)[O-])c4)c(Oc4cnc5[nH]ccc5c4)c3)CC2)=C(c2ccc(Cl)cc2)C1,110% and 84.2%,89.7% and 93.9%,109% and 102%,117% and 132%,109% and 122%,14.1% and 73.1%,6410 nM and > 10000 nM,
CC1COCCN1c1cc(C2(S(C)(=N)=O)CC2)nc(-c2ccnc3[nH]ccc23)n1 (configuration not stated),108% and 90.3%,104% and 84.2%,106% and 81%,108% and 90.7%,75.2% and 90.5%,37.9% and 60.6%,6890 nM and > 10000 nM,
CCCS(=O)(=O)Nc1ccc(F)c(C(=O)c2c[nH]c3ncc(-c4ccc(Cl)cc4)cc23)c1F,109% and 86.7%,104% and 98.7%,94% and 81.7%,106% and 86%,104% and 115%,6.44% and 6.7%,5960 nM and 5640 nM,
CCN1CCN(Cc2ccc(Nc3ncc(F)c(-c4cc(F)c5nc(C)n(C(C)C)c5c4)n3)nc2)CC1,90.6% and 95.6%,103% and 89%,118% and 100%,132% and 152%,,,> 1000 nM,"viability, T/C (compound 0.00316 µM): 102% and 83%; viability, T/C (compound 0.01 µM): 102% and 94.6%"
CCc1c2c(nc3ccc(O)cc13)-c1cc3c(c(=O)n1C2)COC(=O)[C@]3(O)CC,30.8% and 39%,12.3% and 15.7%,5.72% and 5.99%,2.95% and 2.38%,,,13.4 nM and 16.9 nM,"viability, T/C (compound 0.00316 µM): 87.2% and 108%; viability, T/C (compound 0.01 µM): 56.3% and 60%"
CN1CCN(c2cc(C(=O)Nc3cc4cc(-c5cnn(C)c5)ccc4cn3)ccn2)CC1,101% [middle of 12 runs],90.2% [middle of 12 runs],,4.87% [middle of 12 runs],7.54% [middle of 12 runs],1.65% [middle of 11 runs],,"IC50 (compound alone, run of 07/31/2023): 230 nM [middle of 12 runs]"
COC1C=CCC(C)C(C)S(=O)(=O)NC(=O)c2ccc3c(c2)N(CC2CCC21)CC1(CCCc2cc(Cl)ccc21)CO3 (configuration not stated),91.1% and 108%,69.8% and 78.5%,82.5% and 70.2%,92.6% and 93.4%,82.5% and 81.2%,19.6% and 30.2%,5740 nM and 6430 nM,
COc1c(OCCCN2CCOCC2)ccc2c3n(c(=NC(=O)c4cnc(N)nc4)nc12)CCN3,44.2% and 56.4%,21.8% and 30.8%,12.3% and 19.2%,6.02% and 16.4%,,,25.8 nM and 43.2 nM,"viability, T/C (compound 0.00316 µM): 86.1% and 72.8%; viability, T/C (compound 0.01 µM): 73.2% and 74.1%"
Cn1ncnc1[C@H]1c2n[nH]c(=O)c3cc(F)cc(c23)N[C@@H]1c1ccc(F)cc1,96.3% and 95.3%,87.1% and 99.8%,,,,,> 100 nM,"viability, T/C (compound 0.000316 µM): 106% and 93.2%; viability, T/C (compound 0.001 µM): 93.8% and 102%; viability, T/C (compound 0.00316 µM): 111% and 107%; viability, T/C (compound 0.01 µM): 107% and 91%"
NC(=O)C(=Cn1cnc(-c2cc(C(F)(F)F)cc(C(F)(F)F)c2)n1)c1cncnc1,,,,,,,1190 nM and > 3000 nM,"viability, T/C (compound 0.00949 µM): 108% and 96.6%; viability, T/C (compound 0.03 µM): 103%; viability, T/C (compound 0.0949 µM): 99.7% and 142%; viability, T/C (compound 0.3 µM): 99% and 152%; viability, T/C (compound 0.949 µM): 55.8% and 101%; viability, T/C (compound 3 µM): 25.7% and 58.9%"
Nc1ccccc1NC(=O)c1ccc(CNC(=O)OCc2cccnc2)cc1,97.8% and 80.4%,82% and 115%,98.7% and 85.3%,84.6% and 107%,68% and 110%,14.5% and 41.5%,4640 nM and 8460 nM,
Nc1ccn(C2OC(CO)C(O)C2(F)F)c(=O)n1 (configuration not stated),39.5% and 87%,16.9% and 43.3%,11.7% and 21.3%,9.16% and 13.8%,7.63% and 10.3%,6.49% and 9.77%,< 31.6 nM and 83.9 nM,
O=C(c1cc(Cc2n[nH]c(=O)c3ccccc23)ccc1F)N1CCN(C(=O)C2CC2)CC1,107% and 93.5%,97.4% and 85.4%,96.3% and 82.3%,102% and 94.1%,87.1% and 111%,72.5% and 75.4%,> 10000 nM,
O=c1[nH]cc(F)c(=O)[nH]1,103% and 83.7%,104% and 86%,95.3% and 77.2%,67.9% and 91.2%,56.6% and 65%,52.4% and 53.3%,> 10000 nM,
